According to PubChem BioAssay AID212 (DTP/NCI, 2004):
Values joined by “and” are separate entries in the source; they are usually repeats but may differ in a detail not shown here. Identical values can stand only once. Inconclusive results are not listed. *1 amine or outer side, *2 acyl side, *3 side chain or, on linkers, in order; H or OH if unused. Where a SMILES comes first, the peptide text is derived from it. Bridges are numbered along the chain shown (N, C = ends). Roman numbers before positions name the chains, in order. [ ]: non-standard residue; d: D form. Actinocin(1to9) = Cc1c2oc3c(C)ccc(C(=O)[*:2])c3nc-2c(C(=O)[*:1])c(N)c1=O; NMeV = CN[CH](C(=O)O)C(C)C; Aze = O=C(O)[CH]1CCN1; Sar = CNCC(=O)O

Tested on: BDF1 mice, colon carcinoma 38 sc, T/C %
Assay: NCI In Vivo Anticancer Drug Screen. Data for tumor model Colon Carcinoma 38 (subcutaneous) in B6D2F1 (BDF1) mice
Details: endpoint: median tumor weight (est.), higher = larger tumour
Procedure, shortened: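 Ratio of survival or tumor size, compound-treated animals relative to vehicle controls, in tumor-bearing mice.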

[1] = dose: 12.5 mg/kg/injection, schedule: Q07DX002 (ip), vehicle: saline
[2] = dose: 25.0 mg/kg/injection, schedule: Q07DX002 (ip), vehicle: saline
[3] = dose: 50.0 mg/kg/injection, schedule: Q07DX002 (ip), vehicle: saline
[4] = dose: 100.0 mg/kg/injection, schedule: Q07DX002 (ip), vehicle: Klucel (hydroxypropylcellulose) (HPC)

`Cc1c2oc3c(C)ccc(C(=O)NC4C(=O)NC(C(C)C)C(=O)N5CCCC5C(=O)N(C)CC(=O)N(C)C(C(C)C)C(=O)OC4C)c3nc-2c(C(=O)NC2C(=O)NC(C(C)C)C(=O)N3CCC3C(=O)N(C)CC(=O)N(C)C(C(C)C)C(=O)OC2C)c(N)c1=O` (stereo not given) (I: TV[Aze][Sar][NMeV] / II: TVP[Sar][NMeV]; ester I:1-I:C, II:1-II:C; linker I:N-II:N via Actinocin(1to9); configuration not given here) was tested, and the T/C (dose: 25.0 micrograms/kg/injection, schedule: Q07DX002 (ip), vehicle: saline) was 165 % of control, the T/C (dose: 37.5 micrograms/kg/injection, schedule: Q07DX002 (ip), vehicle: saline + alcohol) was 124 % of control and the T/C (dose: 50.0 micrograms/kg/injection, schedule: Q07DX002 (ip), vehicle: saline) was 80 % of control. The T/C (dose: 200.0 micrograms/kg/injection, schedule: Q07DX002 (ip), vehicle: saline) was 93 % of control, the T/C (dose: 400.0 micrograms/kg/injection, schedule: Q07DX002 (ip), vehicle: saline) was 51 % of control and the T/C (dose: 600.0 micrograms/kg/injection, schedule: Q07DX002 (ip), vehicle: saline + alcohol) was 48 % of control and 50 % of control and 73 % of control. The T/C (dose: 800.0 micrograms/kg/injection, schedule: Q07DX002 (ip), vehicle: saline) was 21 % of control.
For `COc1cc2cc(c1Cl)N(C)C(=O)CC(OC(=O)C(C)C)C1(C)OC1C(C)C1CC(O)(NC(=O)O1)C(OC)/C=C/C=C(C)C2` (stereo not given), the T/C (dose: 6.2 micrograms/kg/injection, schedule: Q07DX003 (ip), vehicle: saline + alcohol) was 109 % of control, the T/C (dose: 12.5 micrograms/kg/injection, schedule: Q07DX003 (ip), vehicle: saline + alcohol) was 90 % of control and the T/C (dose: 25.0 micrograms/kg/injection, schedule: Q07DX003 (ip), vehicle: saline + alcohol) was 88 % of control. For the same molecule, the T/C (dose: 50.0 micrograms/kg/injection, schedule: Q07DX003 (ip), vehicle: saline + alcohol) was 79 % of control and the T/C (dose: 100.0 micrograms/kg/injection, schedule: Q07DX003 (ip), vehicle: saline + alcohol) was 93 % of control.
In the case of `CN(C)CCN(C)CC(C)(C)C(=O)/C=C/c1ccccc1`, the T/C (dose: 31.25 mg/kg/injection, schedule: Q07DX002 (ip), vehicle: saline) is reported as 119 % of control, the T/C (dose: 62.5 mg/kg/injection, schedule: Q07DX002 (ip), vehicle: saline) is reported as 11 % of control and the T/C (dose: 125.0 mg/kg/injection, schedule: Q07DX002 (ip), vehicle: saline) is reported as 52 % of control.
`CCCNC1=C(C)C(=O)C2=C(C1=O)[C@H](COC(N)=O)[C@]1(OC)[C@@H]3N[C@@H]3CN21` was tested, and the T/C (dose: 0.78 mg/kg/injection, schedule: Q07DX002 (ip), vehicle: saline) was 72 % of control, the T/C (dose: 1.56 mg/kg/injection, schedule: Q07DX002 (ip), vehicle: saline) was 85 % of control and the T/C (dose: 3.12 mg/kg/injection, schedule: Q07DX002 (ip), vehicle: saline) was 84 % of control. For the same molecule, the T/C (dose: 6.0 mg/kg/injection, schedule: Q07DX002 (ip), vehicle: suspension in saline) was 84 % of control, the T/C (dose: 6.25 mg/kg/injection, schedule: Q07DX002 (ip), vehicle: saline) was 25 % of control and the T/C (dose: 12.0 mg/kg/injection, schedule: Q07DX002 (ip), vehicle: suspension in saline) was 34 % of control. The T/C [1] was 6 % of control.
`O=C1c2ccccc2C(=O)c2c(NCCNCCO)ccc(O)c21` was tested, and the T/C (dose: 5.0 mg/kg/injection, schedule: Q07DX002 (ip), vehicle: suspension in saline) was 79 % of control and 95 % of control, the T/C (dose: 10.0 mg/kg/injection, schedule: Q07DX002 (ip), vehicle: suspension in saline) was 94 % of control and 99 % of control and the T/C (dose: 40.0 mg/kg/injection, schedule: Q07DX002 (ip), vehicle: suspension in saline) was 90 % of control and 96 % of control and 106 % of control. The T/C (dose: 320.0 mg/kg/injection, schedule: Q07DX002 (ip), vehicle: suspension in saline) was 74 % of control.
In the case of `CSc1cc(=O)n2c3ccccc3c3ccnc1c32`, the T/C (dose: 1.25 mg/kg/injection, schedule: Q07DX002 (ip), vehicle: saline with Tween-80) is reported as 60 % of control and the T/C (dose: 2.5 mg/kg/injection, schedule: Q07DX002 (ip), vehicle: saline with Tween-80) is reported as 57 % of control and 77 % of control.
In the case of `CCOC(=O)/N=[N+](\[O-])c1ccccc1`, the T/C (dose: 6.25 mg/kg/injection, schedule: Q07DX002 (ip), vehicle: saline with Tween-80) is reported as 49 % of control and the T/C (dose: 12.5 mg/kg/injection, schedule: Q07DX002 (ip), vehicle: saline with Tween-80) is reported as 71 % of control.
With `Cc1cn(C2CC3[O][Sn]([c]4ccccc4)([c]4ccccc4)[O]CC3O2)c(=O)[nH]c1=O` (stereo not given) the T/C [1] was 110 % of control, the T/C [2] was 100 % of control and the T/C [3] was 95 % of control. For the same molecule, the T/C (dose: 100.0 mg/kg/injection, schedule: Q07DX002 (ip), vehicle: saline) was 110 % of control and the T/C (dose: 200.0 mg/kg/injection, schedule: Q07DX002 (ip), vehicle: saline) was 99 % of control.
With `Nc1ncnc2c1ncn2C1C=C(CO)C(O)C1O` (stereo not given) the T/C (dose: 1.0 mg/kg/injection, schedule: Q07DX002 (ip), vehicle: saline) was 74 % of control and 84 % of control, the T/C (dose: 2.0 mg/kg/injection, schedule: Q07DX002 (ip), vehicle: saline) was 93 % of control and the T/C (dose: 8.0 mg/kg/injection, schedule: Q07DX002 (ip), vehicle: saline) was 107 % of control.
With `CC1CCC(n2cnc3c(Cl)ncnc32)O1` (stereo not given) the T/C (dose: 12.5 mg/kg/injection, schedule: Q07DX002 (ip), vehicle: Klucel (hydroxypropylcellulose) (HPC)) was 76 % of control, the T/C (dose: 50.0 mg/kg/injection, schedule: Q07DX002 (ip), vehicle: Klucel (hydroxypropylcellulose) (HPC)) was 78 % of control and 100 % of control and the T/C (dose: 62.0 mg/kg/injection, schedule: Q07DX002 (ip), vehicle: Klucel (hydroxypropylcellulose) (HPC)) was 87 % of control. The T/C [4] was 86 % of control and 95 % of control, the T/C (dose: 125.0 mg/kg/injection, schedule: Q07DX002 (ip), vehicle: Klucel (hydroxypropylcellulose) (HPC)) was 115 % of control and the T/C (dose: 200.0 mg/kg/injection, schedule: Q07DX002 (ip), vehicle: Klucel (hydroxypropylcellulose) (HPC)) was 109 % of control and 95 % of control. The T/C (dose: 250.0 mg/kg/injection, schedule: Q07DX002 (ip), vehicle: Klucel (hydroxypropylcellulose) (HPC)) was 56 % of control.
`Cn1c2nc(=O)n(-c3ccccc3)c(=O)c-2nc2c1CCCC2` was tested, and the T/C (dose: 25.0 mg/kg/injection, schedule: Q07DX002 (ip), vehicle: saline with Tween-80) was 72 % of control, the T/C (dose: 100.0 mg/kg/injection, schedule: Q07DX002 (ip), vehicle: saline with Tween-80) was 70 % of control and 74 % of control and the T/C (dose: 200.0 mg/kg/injection, schedule: Q07DX002 (ip), vehicle: saline with Tween-80) was 90 % of control.
In the case of `c1ccc2c(NCCCCCCNc3c4ccccc4nc4ccccc34)c3ccccc3nc2c1`, the T/C (dose: 1.25 mg/kg/injection, schedule: Q07DX002 (ip), vehicle: Klucel (hydroxypropylcellulose) (HPC)) is reported as 109 % of control and 95 % of control, the T/C (dose: 2.5 mg/kg/injection, schedule: Q07DX002 (ip), vehicle: Klucel (hydroxypropylcellulose) (HPC)) is reported as 122 % of control and 97 % of control and the T/C (dose: 5.0 mg/kg/injection, schedule: Q07DX002 (ip), vehicle: Klucel (hydroxypropylcellulose) (HPC)) is reported as 70 % of control. For the same molecule, the T/C (dose: 20.0 mg/kg/injection, schedule: Q07DX002 (ip), vehicle: Klucel (hydroxypropylcellulose) (HPC)) was 70 % of control and 76 % of control and the T/C (dose: 40.0 mg/kg/injection, schedule: Q07DX002 (ip), vehicle: Klucel (hydroxypropylcellulose) (HPC)) was 72 % of control.
With `O=c1ssc(=Nc2ccccc2)n1-c1ccccc1` the T/C [4] was 97 % of control and 102 % of control.
For `O=C1OC(=O)[C@H]2[C@@H]1[C@H]1C=C[C@@H]2OC1=O`, the T/C (dose: 25.0 mg/kg/injection, schedule: Q07DX002 (ip), vehicle: suspension in saline) was 59 % of control, the T/C (dose: 50.0 mg/kg/injection, schedule: Q07DX002 (ip), vehicle: suspension in saline) was 65 % of control and the T/C (dose: 100.0 mg/kg/injection, schedule: Q07DX002 (ip), vehicle: suspension in saline) was 44 % of control. The T/C (dose: 200.0 mg/kg/injection, schedule: Q07DX002 (ip), vehicle: suspension in saline) was 62 % of control, the T/C (dose: 400.0 mg/kg/injection, schedule: Q07DX002 (ip), vehicle: suspension in saline) was 71 % of control and the T/C (dose: 800.0 mg/kg/injection, schedule: Q07DX002 (ip), vehicle: suspension in saline) was 97 % of control.
With `CC(=O)OCC1OC(n2ccc(N)nc2=O)C(OC(C)=O)C1OC(C)=O` (stereo not given) the T/C [2] was 113 % of control and 92 % of control, the T/C [3] was 97 % of control and 104 % of control and the T/C (dose: 800.0 mg/kg/injection, schedule: Q07DX002 (ip), vehicle: saline) was 30 % of control and 36 % of control.
In the case of `CCS/C(SC)=C(/c1ccccc1)[P+](c1ccccc1)(c1ccccc1)c1ccccc1`, the T/C (dose: 1.5 mg/kg/injection, schedule: Q07DX002 (ip), vehicle: Klucel (hydroxypropylcellulose) (HPC)) is reported as 87 % of control and the T/C (dose: 3.0 mg/kg/injection, schedule: Q07DX002 (ip), vehicle: Klucel (hydroxypropylcellulose) (HPC)) is reported as 116 % of control.
